Results from patent publication US20260374792A1, “PHENYL-FREE BISCATIONIC QUATERNARY PHOSPHONIUM COMPOUNDS AS ANTIMICROBIAL AGENTS” (priority 2022, published 2026).

Legend:
[1] = tested on: A. baumannii; experiment: MIC against A. baumannii; assay type: cell-based; conditions: Acinetobacter baumannii, 72 h
Method: (§1) The term “minimum inhibitory concentration (MIC)” means the lowest concentration of an antimicrobial agent that will inhibit the visible growth of a microorganism after overnight incubation. MIC values against bacteria, for example, the Gram-positive Staphylococcus aureus and Enterococcus faecalis and the Gram-negative Escherichia coli and Pseudomonas aeruginosa were determined by standard methods. See also P. A. Wayne, Methods for Dilution Antimicrobial Tests for Bacteria that Grow Aerobically; Approved Standard, Ninth Edition, 2012, CLSI Document M07-A9, Vol. 32 No. 2.
(§2) Biological testing procedures were adapted from prior work by Melander and coworkers. For all biological assays, laboratory strains of methicillin-susceptible Staphylococcus aureus MSSA (SH1000), Staphylococcus aureus CA-MRSA (USA300-0114), Staphylococcus aureus HA-MRSA (ATCC 33591), Escherichia coli (MC4100), Enterococcus faecalis (OG1RF), Acinetobacter baumannii (ATCC 17978), were grown with shaking at 37 °C overnight from freezer stocks in 5 mL of the indicated media: SH1000, OG1RF, MC4100, USA300-0114, and ATCC 17978 were grown in BDTM Mueller-Hinton broth (MHB), whereas ATCC 33591 was grown in BDTM tryptic soy broth (TSB). The inoculum were then streaked onto Mueller-Hinton agar (MHA) plates and grown overnight at 37 °C. From the plates, single colonies were selected, diluted into 50 mL of fresh media and grown overnight at 37 °C with shaking for use in the MIC assays. Optical density (OD) measurements were obtained using a SpectraMax iD3 plate reader (Molecular Devices, United States).
(§3) Compounds were serially diluted two-fold from stock solutions (1.0 mM) to yield twelve 100 μL test concentrations, wherein the starting concentration of dimethyl sulfoxide (DMSO) was 2.5%. Overnight S. aureus, E. faecalis, E. coli, A. baumannii, USA300-0114 (CA-MRSA), and ATCC 33591 (HA-MRSA) cultures were diluted to ca. 10^6 CFU/mL in MHB or TSB and regrown to mid-exponential phase, as determined by optical density recorded at 600 nm (OD600). All cultures were then diluted again to ca. 10^6 CFU/mL and 100 μL were inoculated into each well of a U-bottom 96-well plate (Corning, 351177) containing 100 μL of compound solution. Plates were incubated statically at 37 °C for 72 hours upon which wells were evaluated visually for bacterial growth. The MIC was determined as the lowest concentration of compound resulting in no bacterial growth visible to the naked eye, based on the highest value in three independent experiments. Aqueous DMSO controls were conducted as appropriate for each compound.
(§4) The prepared library of biscationic amphiphilic compounds was assessed for performance as antibacterial disinfectants by determining the minimum inhibitory concentration (MIC) for each against a panel of bacteria. The bacteria selected for the study were chosen to evaluate the broad spectrum antimicrobial performance of the QPCs, and therefore, included both Gram-positive and Gram-negative bacterial strains, including those with known antimicrobial resistance mechanisms. These bacteria include the Gram-positive strains of methicillin-susceptible Staphylococcus aureus [MSSA; SH1000], community-acquired methicillin-resistant Staphylococcus aureus [CA-MRSA; USA 300-0114], hospital-acquired methicillin-resistant Staphylococcus aureus [HA-MRSA; ATCC 33591] and the […], Escherichia coli [MC4100], Acinetobacter baumannii [ATCC 17498] and Pseudomonas aeruginosa [PAO1].

[2] = tested on: P. aeruginosa (PAO1); experiment: MIC against P. aeruginosa; assay type: cell-based; conditions: Pseudomonas aeruginosa; P. aeruginosa (PAO1); 72 hours, 37 °C; read-out: MIC
Method: as §1, §2, §3, §4

[3] = tested on: P. aeruginosa; experiment: MBEC, biofilm eradication, P. aeruginosa; assay type: cell-based, Pseudomonas aeruginosa; conditions: 24 hours, 37 °C, TSB
Method: A regrowth assay was used to establish the MBEC of a compound to evaluate the antibiofilm activity.
Biofilm eradication experiments were performed using a pegged-lid microtiter plate assay to determine the MBEC values for compounds of interest, as previously described. […] Sci. Rep. 2017, 7, 2003; and Raval, Y. S., Flurin, L., Mohamed, A., Greenwood-Quaintance, K. E., Beyenal, H., & Patel, R. In Vitro Activity of Hydrogen Peroxide and Hypochlorous Acid Generated by Electrochemical Scaffolds Against Planktonic and Biofilm Bacteria. Antimicrob Agents Chemother. 2021, 65, e01966-20. Briefly, […] of mid-log phase culture diluted to ca. 10^6 CFU/mL in tryptic soy broth (TSB) was added to wells of plat-bottom 96-well plates (Thermo Scientific, 266120) and covered with 96-pegged lid (Thermo Scientific, 445497). Plates were incubated to establish bacterial biofilms after incubation at 37 °C for 24 hours. The pegged lid was then removed, washed with PBS, and transferred to another 96-well plate containing 2-fold serial dilutions of the test compounds (the “challenge plate”). The total volume in each well was […], comprising of […] of compound diluted in water/DMSO, with a starting DMSO concentration of 2.5%, and […] of TSB. Plates were incubated statically at 37 °C for 24 hours. Next, the pegged lids were transferred to a fresh 96-well plate containing […] of TSB and incubated overnight at 37 °C. MBEC values were determined as the lowest test concentration that resulted eradicated biofilm (i.e., wells displaying no turbidity in the final plate).

SMILES | MIC [1] [µM] | MIC [2] [µM] | MBEC [3] [µM]
CCCCCCCCCCCC[N+](C)(C)CC[N+](C)(C)CCCCCCCCCCCC [12(2)12, reference compound] | 2 | 8 | >250
CCCCCCCCCCCC[P+](C)(C)CC[P+](C)(C)CCCCCCCCCCC [^MeP2P-12,12] | 8 | 8 | >250
